Results reported in patent publication US20260327211A1, “MODULATORS OF A POTASSIUM CHANNEL AND OF TRPV1 CHANNEL AND USES THEREOF” (Bsense Bio Therapeutics Ltd., priority 2023, published 2026).
Like-named read-outs stand apart in the source and are kept apart here.

Key:
[1] = Log D, 1-octanol/buffer shake flask; assay type: physicochemical; conditions: pH 7.4
Method: The Log D assay was a miniaturized 1-octanol/buffer shake flask method followed by LC/MS/MS analysis, as follows.
The test compounds or control compounds Nadolol, Chlorpromazine Hydrochloride and Propranolol Hydrochloride were dissolved in 100% DMSO to obtain 10 mM solutions, which were transferred to 96-well polypropylene cluster tubes; 2 μL/well. 1-octanol saturated with 0.1 M phosphate buffer (149 μL/well) and 0.1 M phosphate buffer saturated with 1-octanol (149 μL/well) were added to the tubes, respectively, and each tube was vigorously mixed for 2 minutes and then shaked at a speed of 800 rpm at room temperature for 1 hour, followed by centrifugation at 4000 rpm for 5 minutes at room temperature. Thereafter, for the test compounds and the Chlorpromazine Hydrochloride and Propranolol Hydrochloride, the sample of the buffer layer was diluted by a factor of 50-fold and the sample of 1-octanol layer was diluted by a factor of 2000-fold with internal standard (IS) solution. For Nadolol, the sample of the buffer layer was diluted by a factor of 1000-fold and the sample of 1-octanol layer was diluted by a factor of 400-fold with internal standard (IS) solution. The samples were analyzed using a triple quadrupole mass spectrometer. Peak areas were corrected by dilution factors and embedded internal standard, and the ratio of the corrected peak areas was used to calculate the Log D value. The Log D value for each compound will be calculated by the following equation: […]

[2] = Metabolite identification (Met-ID), human hepatocytes; assay type: in vitro ADME; conditions: human hepatocytes
Method: Cell culture and incubation: Cryopreserved hepatocyte cells, from human and rat sources, were purchased from commercial sources or in-house production, and were cultured in Williams' Medium E supplemented with glutamine and HEPES, in a humidified 5% CO2 incubator at 37° C., to a cell density of […]. Then, solutions of test compounds at a concentration of 10 μM, or 7-Ethoxycoumarin, as a positive control, at a concentration of 30 μM, in Eagle's Minimum Essential Medium, Catalog No. 30-2003 (ATCC) supplemented with 20% fetal bovine serum, were introduced and the mixture was incubated for 120 minutes, or other specified time points.
The samples were analyzed for metabolites using an LC-MS method developed on […] and PDA systems. Comparative analyses of mass spectra and ion fragmentation between the parent compound and its metabolites were carried out, and metabolic profiling was determined using the mass spectrometric and/or PDA (UV) response. Hypothetical structures of metabolites and their metabolic pathways were proposed.

CYP3A4 = experiment: CYP inhibition / time-dependent inhibition, CYP3A4_Midazolam; assay type: in vitro ADME, human; conditions: role: inhibitor; substrate midazolam 2.0 μM; CYP TDI ratio
Method: The time-dependent inactivation potency of the test compound to CYP enzymatic activities was assessed by the pre-incubation of the human liver microsomes with the test compound in the presence and absence of NADPH, followed by the incubation with the discrete marker substrates, as follows.
Pre-incubation with human liver microsomes (HLMs): The TDI inactivation potency on CYP enzymatic activities was evaluated through pre-incubation with HLMs (Corning). A liver microsome mixture at a concentration of 0.1 mg/mL, and the test compound at 8 different concentrations (0, 0.05, 0.165, 0.5, 1.65, 5.0, 16.5, or 50.0 μM) was warmed at 37° C. for 10 minutes. Concurrently, a set of known time-dependent inactivators was also prepared in duplicate for comparison. Following this, NADPH (1.0 mM) was added to one group (Group 1), and an equal volume of potassium phosphate buffer to the second group (Group 2), marking the beginning of a 30-minute pre-incubation at 37° C.
Incubation: After pre-incubation, the marker substrate, or marker substrate plus NADPH was added to the mixture, thereby initiating the incubation. The duration of the incubation was dependent on the type of CYP isoform being evaluated. For example, with the CYP3A isoform, the mixture was incubated over 3 minutes utilizing midazolam as the marker substrate (2.0 μM), verapamil as the standard inactivator (3.5 μM).
Termination of Reaction: Following the incubation, ice-cooled acetonitrile containing the internal standard (IS) was added to halt the reactions. Metabolites generated from the marker substrates were then measured via LC-MS/MS, assessed based on peak area ratios of the analyte to IS.

[3] = Human liver microsome metabolic stability; assay type: in vitro ADME; conditions: for HLM T1/2 / half-life at 1 µM: human liver microsomes; for HLM T1/2: 1 µM; for half-life at 1 µM: human, liver microsomes, read-out: HLM T1/2
Source text: Liver microsomes which are subcellular particles derived from endoplasmic reticulum of hepatic cells were used for evaluating the tested compounds. These particles are rich in drug metabolizing enzymes, including the cytochrome p-450 family. Liver microsomes are a recommended test system for various in vitro drug metabolism and pharmacokinetics (DMPK) studies. CLint values lower than […] are considered suitable for drug development.
Liver Microsome Metabolic Stability Assay (NADPH): The liver microsome stability assay was evaluated through pre-incubation with HLMs. A liver microsome mixture (pooled from multiple donors) at a concentration of 0.5 mg/mL, and the test compound at a concentration of 1 μM, were warmed in the presence of a NADPH regenerating system (about 1.0 mM) at 37° C. Positive controls, including testosterone (a CYP3A4 substrate), propafenone (a CYP2D6 substrate), and diclofenac (a CYP2C9) substrate, were concurrently incubated with the HLMs, in the presence of the NADPH regenerating system (1.0 mM). Samples were extracted during incubation at multiple intervals: 0, 5, 15, 30, 45 and 60 minutes. To terminate the reactions, the samples were promptly mixed with cooled acetonitrile that included an internal standard (IS). An additional compound was incubated with the HLMs in the absence of the NADPH regeneration system, from which a sample was taken at the 60-minute interval.
The clearance of the test compound in the samples was subsequently analyzed by LC-MS/MS based on the peak area ratios of the analyte to the IS.
The following equation was used to calculate the microsome clearance: […]
Liver weight: 40 grams/kg, 30 grams/kg, 32 grams/kg, 20 grams/kg and 88 grams/kg, for rat, monkey, dog, human and mouse, respectively.

Rat pharmacokinetics = assay type: in vivo; conditions: rat, plasma
Method: The pharmacokinetic (PK) properties of test compound following single intravenous (IV) bolus and oral gavage (PO) administration in male Sprague-Dawley (SD) rats were determined in this study.
Test compound administration: Six male Sprague Dawley (SD) rats were divided into two designated groups, Group 1 and Group 2, each composed of three rat subjects. Group 1 animals were subjected to a single intravenous bolus administration of the test compound at a dosage of 1 mg/kg. Group 2 animals were administered with the test compound orally in a single dose, at a concentration of 10 mg/kg. Throughout the study, the animals had unhindered access to food. The test compound was administered at a concentration of 0.5 mg/mL and dose volume of 2 mL/kg for Group 1, and at a concentration of 1 mg/mL and dose volume of 10 mL/kg, for Group 2.
Sample extraction and analysis: Plasma samples were systematically collected at varying time points of 0.083 (only for Group 1), 0.25, 0.5, 1, 2, 4-, 6-, 8-, and 24-hours post-dose. LC-MS/MS was used to determine the test compound's concentration within the collected plasma samples. Data reflecting plasma concentration in correlation to time were graphically represented and subjected to a non-compartmental analysis using the Phoenix WinNonlin 6.3 software program. The resulting pharmacokinetic parameters, including Clearance (Cl), Volume of distribution at steady state (Vdss) and initial concentration (C0) for intravenous administration; peak concentration (Cmax), time of peak concentration (Tmax), and bioavailability (% F) for extravascular administration; and half-life (T1/2), Area Under Curve from time zero to time t (AUC(0-t)), Area Under Curve from time zero to infinity (AUC(0-inf)), Mean Residence Time from time zero to time t (MRT(0-t)), Mean Residence Time from time zero to infinity (MRT(0-inf)) for all routes, were systematically calculated.

hTRPV1 = molecular target: T1, hTRPV1 (Homo sapiens, UniProt Q8NER1); experiment: hTRPV1 dual activity electrophysiology, CHO cells co-expressing hKv7.2/3 and hTRPV1; assay type: cell-based; conditions: Kv7.2/3 co-expressed and activated, capsaicin; read-out: Dual hTRPV1 / Dual Expressing CHO, CAP IC50
T1 construct: CDS of NM_080704.4, inserted into the multiple cloning site of pcDNA3.1(+); host or cells: CHO/hKv7.2/3
T1 sequence (Q8NER1 whole entry): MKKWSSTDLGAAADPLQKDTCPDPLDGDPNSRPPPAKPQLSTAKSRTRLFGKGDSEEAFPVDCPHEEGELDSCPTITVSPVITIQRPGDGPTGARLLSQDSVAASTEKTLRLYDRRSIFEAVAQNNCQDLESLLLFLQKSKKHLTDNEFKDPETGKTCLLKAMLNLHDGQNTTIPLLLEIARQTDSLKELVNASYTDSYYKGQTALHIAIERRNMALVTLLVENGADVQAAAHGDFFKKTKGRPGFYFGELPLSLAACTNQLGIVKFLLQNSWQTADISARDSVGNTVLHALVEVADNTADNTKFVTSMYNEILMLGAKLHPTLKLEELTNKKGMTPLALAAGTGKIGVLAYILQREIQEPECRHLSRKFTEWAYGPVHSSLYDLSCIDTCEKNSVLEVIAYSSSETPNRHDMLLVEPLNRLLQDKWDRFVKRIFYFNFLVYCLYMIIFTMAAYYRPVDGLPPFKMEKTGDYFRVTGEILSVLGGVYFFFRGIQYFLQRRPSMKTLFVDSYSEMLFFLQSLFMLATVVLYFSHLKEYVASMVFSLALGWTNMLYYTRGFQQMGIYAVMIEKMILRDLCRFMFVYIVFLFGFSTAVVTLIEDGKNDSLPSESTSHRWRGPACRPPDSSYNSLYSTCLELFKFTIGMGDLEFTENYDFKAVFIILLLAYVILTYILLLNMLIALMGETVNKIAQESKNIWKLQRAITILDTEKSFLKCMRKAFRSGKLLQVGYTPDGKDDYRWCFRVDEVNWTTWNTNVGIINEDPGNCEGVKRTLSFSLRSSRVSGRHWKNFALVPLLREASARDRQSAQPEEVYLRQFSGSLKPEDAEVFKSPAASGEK
Method: Cell culture and DNA transfection: CHO/hKv7.2/3 cells were transfected with hTRPV1 DNA constructs (CDS of NM_080704.4, inserted into the multiple cloning site of pcDNA3.1(+) between the Hind III and BamH I restriction site, Genscript). For CHO transfection, 1×10^6 cells were suspended in a reaction mix (Amaxa™ 4D-Nucleofector™-LONZA) containing 5 μg of hTRPV1 DNA and 0.5 μg of GFP DNA (for cells selection) in a cuvette.
The cells were transformed (Amaxa, DT-133 program for CHO transfection with p-3 Kit) and recovered for 10 minutes at RT in the hood. Then cells were re-suspended in a 10 mL antibiotic (Ab)-free medium suspension and were plated on Gelatin or PLL-coated cover glass in different cell densities. On the next morning, the medium was changed to full medium containing the CHO/hKv7.2/3 cell line selection antibiotics.
Extracellular (Bath) solution: The solution was composed of (in mM): NaCl, 140; KCl, 4; CaCl2, 1.8; MgCl2, 1.2; Glucose, 11; HEPES, 5.5. pH was adjusted to 7.3 with NaOH. Osmolarity was adjusted to 310 mOsm with Sucrose.
Intracellular (Pipette) solution: Pipettes were pulled from borosilicate glass (Warner Instrument Corp, USA) with a resistance of 3-7 MΩ and were filled with internal solution composed of (in mM): KCl, 130; MgCl2, 1; K ATP, 5; EGTA, 5; HEPES, 10. pH was adjusted to 7.3 with KOH. Osmolarity was adjusted to 290 mOsm with Sucrose.
A programmable valve-linked pressurized perfusion system was used for local application of compounds nearby the cell recorded in a consistent flow rate of 2-3 mL/minute. Series resistance was corrected and data were sampled at 5 kHz and low pass filtered at 2.4 kHz using MultiClamp 700B amplifier with pCLAMP11 software (Molecular Devices, USA).
At least 48 hours following cell transfection and plating, cells were recorded to assess the TRPV1 dual activity. Membrane potential was held at −90 mV. To measure the inhibitory effects of the tested compounds on hTRPV1 dual activity the following protocol was performed:
Cells were perfused with vehicle-only containing bath solution. After 30 seconds, a single −40 mV 1.5 second step was applied for Kv7.2/3 activation and 30 seconds later capsaicin (1 μM) was applied for 6 seconds to activate the TRPV1.
Cells perfusion was changed to a compound-containing bath solution, and after 2 minutes and 30 seconds of compound application, a single −40 mV 1.5 second step was applied for Kv7.2/3 activation and 30 seconds later capsaicin (1 μM) was applied for 6 seconds to activate the TRPV1.
Cells perfusion was thereafter changed back to vehicle only-containing bath solution. After 30 seconds, a single −40 mV 1.5 step was applied for Kv7.2/3 activation and 30 seconds later capsaicin (1 μM) was applied for 6 seconds to activate the TRPV1 followed by a capsaicin wash out.
The drug current response, when capsaicin was injected following 3 minutes of pre-incubation with the test compound, was divided by the averaged control currents, induced without compound, before compound incubation and following its washout, to evaluate the drug/control response.

[4] = 1-octanol/phosphate buffer, read-out: LogD

Row | SMILES | logD [1] | Human Hepatocytes MetID (glutathione conjugation) [2] | CYP-TDI (midazolam), (−)NADPH/(+)NADPH Ratio CYP3A4 (CYP3A4) | HLM T1/2 [3] [min] | logD [1, 4] | clearance (Rat pharmacokinetics; iv, 1 mg/kg, read-out: PK: Cl) [mL/min/kg] | bioavailability (Rat pharmacokinetics; po, 10 mg/kg, read-out: PK: Oral BA) [%] | HLM and/or Rat PK clearance rates compared to compound 661 [3] | half-life at 1 µM [3] [min] | IC50 (hTRPV1) [nM]
1 | CC1CN(c2cncc(CC(=O)NC3COCC3O)c2)c2c(Cl)cc(Cl)cc21 (mixture of isomers) [Compound 710] | 2.88 | did not indicate the presence of glutathione conjugation | 1.22 | 10.1 | – | – | – | – | – | –
2 | CC1(C)CN(c2cncc(CC(=O)NC3COCC3O)c2)c2c(Cl)cc(Cl)cc21 (stereo not shown) [Compound 720] | 3.24 | – | >1.6 | 6.1 | – | – | – | – | – | –
3 | O=C(Cc1cncc(N2CC3(CC3)c3cc(Cl)cc(Cl)c32)c1)NC1COCC1O (stereo not shown) [Compound 730] | 3.22 | – | >1.57 | 9.9 | – | – | – | – | – | –
4 | O=C(Cc1nccc(-n2cc(Cl)c3cc(Cl)cc(Cl)c32)n1)NCCO [Compound 767] | – | did not indicate the presence of glutathione conjugation and None | 1.20 | – | 3.3 | 42.5 | 79.7 | improved HLM and/or Rat PK clearance rates compared to compound 661 | 61.9 | –
5 | O=C(Cc1cncc(-n2cc(C(F)(F)F)c3cc(Cl)cc(Cl)c32)c1)N[C@@H]1COC[C@H]1O [Compound 770] | – | – | >1.9 | – | 3.88 | – | – | – | 34.8 | –
6 | O=C(Cc1cncc(-n2cc(C3CC3)c3cc(Cl)cc(Cl)c32)c1)N[C@@H]1COC[C@H]1O [Compound 790] | – | – | 2.04 | – | 4.29 | – | – | – | 26.7 | –
7 | CC(C)(C)c1cn(-c2cncc(CC(=O)N[C@@H]3COC[C@H]3O)c2)c2c(Cl)cc(Cl)cc12 [Compound 800] | – | – | >2.67 | – | > 4.1 | – | – | – | 15.4 | –
8 | O=C(Cc1cc(-n2cc(Cl)c3cc(Cl)cc(Cl)c32)ncn1)NCCO [Compound 851] | 3.38 | did not indicate the presence of glutathione conjugation | – | 60.6 | – | – | – | improved HLM and/or Rat PK clearance rates compared to compound 661 | – | 1080
